The test system of series [1] is aryl hydrocarbon receptor (AhR). The conditions noted are these: cited from earlier work.
The target of series [2] is PGC-1α/ERRα. The series is described as follows: PGC/ERR luciferase reporter gene assay, agonist mode. The format is cell-based, human. The note with it: for AC50 / pEC50: Homo sapiens; for AC50: read-out: AC50 PGC-ERR ↑; for pEC50: read-out: PGC-1α/ERRα (Agonist) EC50. (In general: A reporter such as luciferase makes a cellular process visible.)
For series [3], the target named is ERRα. Kind of series: ERR luciferase reporter gene assay, agonist mode. Type of series: cell-based, human. The conditions noted are these: for AC50: read-out: AC50 ERR ↑.
Series [4] relates to PGC/ERR cell line (HEK293T). The series is described as follows: Cell viability assay multiplexed with PGC/ERR antagonist mode assay. Type of series: cell-based, human. The note with it: read-out: PGC-1α/ERRα (Viability) IC50.
For a further series, the system named is ERR cell line (HEK293T). Kind of series: Cell viability assay multiplexed with ERR antagonist mode assay. The format is cell-based, human. The note with it: read-out: ERRα (Viability) IC50.
Series [5] addresses PGC-1α/ERRα. The series is described as follows: PGC/ERR luciferase reporter gene assay, antagonist mode. The conditions noted are these: for pIC50: read-out: PGC-1α/ERRα (Antagonist) IC50; for AC50: read-out: AC50 PGC/ERR ↓. Type of series: cell-based, human.
Series [6] concerns ERR and PGC/ERR cell lines. Kind of series: Cell viability. The note with it: agonist mode, ERR and PGC/ERR lines (Fig. 3A,B).
Series [7] has as its system ERRα. Kind of series: ERR luciferase reporter gene assay, antagonist mode. The format is cell-based, human. The note with it: for pIC50: read-out: ERRα (Antagonist) IC50.
[8] abbreviates: agonist mode, 0 = inactive or inconclusive.
Where [9] appears, read: Homo sapiens, read-out: ERRα (Agonist) EC50.
Where [10] appears, read: antagonist mode, 0 = inactive or inconclusive.

pEC50, pIC50: −log10 of the molar value. Where a name gives a salt, the structure may show the parent alone. Read-outs that look alike come from different tables or passages of the source.

With 6-Bromoindirubin-3-oxime, in series [1], the “AC50 AhR ↑” value is on record as 5.48 log10(M)*–1. For the same compound, the “AC50 PGC-ERR ↑” value on PGC-1α/ERRα [2] (setting [8]) is given as 5.93 log10(M)*–1. In addition, on ERRα [3] (setting [8]), the “AC50 ERR ↑” value is listed as 5.78 log10(M)*–1. Further, on ERRα [3] (read-out: ERRα (Agonist) EC50, LOPAC qHTS, dash = inconclusive or no activity), the pEC50 was 5.77.
Consider `CC[n+]1c(/C=C/C=C2/N(C)c3ccccc3C2(C)C)sc2ccccc21` [AC-93253 iodide], for which the results for the pIC50 (in series [4]; in the series with ERR cell line (HEK293T); on PGC-1α/ERRα [5]) were 5.42, 5.08 and 6.38, respectively.
For `COc1cc(NS(C)(=O)=O)ccc1Nc1c2ccccc2nc2ccccc12` [Amsacrine hydrochloride], the pIC50 in the series with ERR cell line (HEK293T) (Homo sapiens, HEK-293T) was 4.63.
`O=c1cc(-c2ccc(O)cc2)oc2cc(O)cc(O)c12` [Apigenin]: the “AC50 AhR ↑” value in series [1] is 5.28 log10(M)*–1. The AC50 with PGC-1α/ERRα [2] is 2340 nM.
For `O=c1c(-c2ccc(O)cc2)coc2cc(O)cc(O)c12` [Genistein], the “cytotoxicity at concentrations of outfitted points of agonist curves” value in series [6] is on record as “cytotoxicity did not appear to be the direct cause for the outfitted points”. For the same compound, the AC50 with PGC-1α/ERRα [2] is 3310 nM; in the series on ERRα [3] (Homo sapiens), 2950 nM. Also, the pEC50 in the series with ERRα [3] (Homo sapiens, 18 h, read-out: EC50, ERRα induction, assay optimization, 2000 cells/well, 18 h) is 5.48; with ERRα [3] (Homo sapiens, 18 h, read-out: EC50, ERRα induction, assay optimization, 3000 cells/well, 18 h), 5.49.
Regarding `O=C1Cc2c([nH]c3ccc(Br)cc23)-c2ccccc2N1` [Kenpaullone], the “cytotoxicity at concentrations of outfitted points of agonist curves” value in series [6] is recorded as “cytotoxicity did not appear to be the direct cause for the outfitted points”. For the same compound, the AC50 with PGC-1α/ERRα [2] is 1320 nM; in the series on ERRα [3] (Homo sapiens), 2950 nM. Besides, the pEC50 with PGC-1α/ERRα [2] was 5.88; with ERRα [3] (setting [9]) it was 5.53.
For `CCCCCCCCCCCCCC(=O)O[C@@H]1[C@@H](C)[C@@]2(O)[C@@H](C=C(CO)C[C@]3(O)C(=O)C(C)=C[C@@H]23)[C@@H]2C(C)(C)[C@]12OC(C)=O` [Phorbol 12-myristate 13-acetate] the same measures were “cytotoxicity was seen at the concentration accompanying the outfitted points”, 6.61 nM, 8.32 nM, 8.00 and 8.00.
Take `C=C(C)[C@H]1Cc2c(ccc3c2O[C@@H]2COc4cc(OC)c(OC)cc4[C@@H]2C3=O)O1` [Rotenone]: the pIC50 in series [4] (Homo sapiens, HEK-293T) is 5.18; with ERR cell line (HEK293T) (Homo sapiens, HEK-293T), 5.88; in the series on PGC-1α/ERRα [5] (Homo sapiens), 7.40. The AC50 in the series on PGC-1α/ERRα [5] (Homo sapiens) is 74.1 nM.
In the case of `O=c1c2ccccc2nc2n1CCc1c-2[nH]c2ccccc12` [Rutaecarpine], in series [1], the “AC50 AhR ↑” value is reported as 5.53 log10(M)*–1. In addition, the results for the AC50 in the series with PGC-1α/ERRα [2] and with ERRα [3] (Homo sapiens) were 13200 nM and 2340 nM, respectively. Further, the pEC50 in the series with PGC-1α/ERRα [2] is 4.88; in the series on ERRα [3] (setting [9]), 5.63.
Regarding `CC(=O)S[C@@H]1CC2=CC(=O)CC[C@]2(C)[C@H]2CC[C@@]3(C)[C@@H](CC[C@@]34CCC(=O)O4)[C@H]12` [Spironolactone], the AC50 is 16600 nM in the series on ERRα [7] (Homo sapiens, read-out: AC50 ERR↓) and 9330 nM in the series on PGC-1α/ERRα [5] (Homo sapiens). Besides, the pIC50 in the series on ERRα [7] (Homo sapiens) is 4.73; in the series on PGC-1α/ERRα [5] (Homo sapiens), 5.03.
`CCN1/C(=C/C(C)=O)Sc2ccc(OC)cc21` [TG003]: on ERRα [7] (setting [10]), the “AC50 ERR↓” value is on record as 4.93 log10(M)*–1. In addition, the “AC50 PGC/ERR ↓” value at PGC-1α/ERRα [5] (setting [10]) was 5.23 log10(M)*–1.
Take `C/C=C(/C)C(=O)O[C@H]1C(C)=C2[C@H]([C@@H]1OC(=O)CCCCCCC)[C@@](C)(OC(C)=O)C[C@H](OC(=O)CCC)[C@@]1(O)[C@H]2OC(=O)[C@@]1(C)O` [Thapsigargin]: the pIC50 was 6.62 in the series with ERRα [7] (Homo sapiens) and 4.98 in the series on ERR cell line (HEK293T) (Homo sapiens, HEK-293T).

The values above are taken from publication PMC5486949 (SLAS discovery, 2017).
